{
  "source": "paper PMC8209004",
  "about": "“Structural basis of GTPase-mediated mitochondrial ribosome biogenesis and recycling” (Nature Communications, 2021)",
  "target": "T1, GTPBP6 (Homo sapiens, UniProt O43824)",
  "T1 construct": "Δ43GTPBP6 (first 43 residues removed); 6xHis-MBP tag cleaved with TEV; expressed in E. coli BL21 (DE3) RIL; modelled residues 94-515",
  "T1 sequence (O43824 44-516)": "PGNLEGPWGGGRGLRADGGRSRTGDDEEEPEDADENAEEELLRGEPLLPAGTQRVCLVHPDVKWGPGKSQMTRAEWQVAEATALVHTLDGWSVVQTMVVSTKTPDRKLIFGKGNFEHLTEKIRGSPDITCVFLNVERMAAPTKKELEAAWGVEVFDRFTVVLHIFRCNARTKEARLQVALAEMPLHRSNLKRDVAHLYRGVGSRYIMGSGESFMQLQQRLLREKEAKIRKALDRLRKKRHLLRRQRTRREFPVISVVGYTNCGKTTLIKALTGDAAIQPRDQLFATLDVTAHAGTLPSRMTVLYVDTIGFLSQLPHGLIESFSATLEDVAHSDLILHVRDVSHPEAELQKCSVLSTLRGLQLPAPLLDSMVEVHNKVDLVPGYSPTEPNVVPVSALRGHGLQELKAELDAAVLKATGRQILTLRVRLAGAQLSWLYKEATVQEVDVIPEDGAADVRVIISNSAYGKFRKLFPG",
  "assay": "cryo-EM structure of GTPBP6-bound mtLSU",
  "format": "binding",
  "settings": "bound in GTPase domain; 1 mM GTP and 1 mM ATP, pH 7.4, 4 °C; biogenesis intermediate at 2.6 Å and mature mtLSU at 2.7 Å",
  "data": [
    {"smiles": "Nc1nc2c(ncn2[C@@H]2O[C@H](COP(=O)(O)OP(=O)(O)OP(=O)(O)O)[C@@H](O)[C@H]2O)c(=O)[nH]1", "note": "[GTP]", "values": [
      {"measurement": "cryo-EM structure of GTPBP6-bound mtLSU", "value": "shows clear density for a bound GTP molecule"}
    ]}
  ]
}
